Assay results reported in patent US8952034B2, “Fused heterocyclic compounds as ion channel modulators” (Gilead Sciences, Inc., priority 2009, dated 2015).

Biological target: wild-type human cardiac sodium channel, hNav1.5 (Homo sapiens, UniProt Q14524)
Experiment: Late INa screening assay (automated whole cell patch clamp, PatchXpress)
Format: cell-based
Conditions: compound at 1 μM; HEK293 cells expressing hNav1.5; late INa generated with 10 μM Tefluthrin (or 50 nM ATX II); read-out: LateINa_1 uM (percent block of late INa)
Outline: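 Late sodium current through wild-type human hNav1.5 stably expressed in HEK293 cells (no beta subunits) was recorded by automated whole-cell patch clamp on a PatchXpress 7000A at 24-27° C. Late INa was induced with 10 μM Tefluthrin or 50 nM ATX II. Cells were stepped from −120 mV to −20 mV for 250 ms at 0.1 Hz, and percent block was normalized to current in Na-free extracellular solution.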

Sequence of wild-type human cardiac sodium channel, hNav1.5 (Q14524 whole entry): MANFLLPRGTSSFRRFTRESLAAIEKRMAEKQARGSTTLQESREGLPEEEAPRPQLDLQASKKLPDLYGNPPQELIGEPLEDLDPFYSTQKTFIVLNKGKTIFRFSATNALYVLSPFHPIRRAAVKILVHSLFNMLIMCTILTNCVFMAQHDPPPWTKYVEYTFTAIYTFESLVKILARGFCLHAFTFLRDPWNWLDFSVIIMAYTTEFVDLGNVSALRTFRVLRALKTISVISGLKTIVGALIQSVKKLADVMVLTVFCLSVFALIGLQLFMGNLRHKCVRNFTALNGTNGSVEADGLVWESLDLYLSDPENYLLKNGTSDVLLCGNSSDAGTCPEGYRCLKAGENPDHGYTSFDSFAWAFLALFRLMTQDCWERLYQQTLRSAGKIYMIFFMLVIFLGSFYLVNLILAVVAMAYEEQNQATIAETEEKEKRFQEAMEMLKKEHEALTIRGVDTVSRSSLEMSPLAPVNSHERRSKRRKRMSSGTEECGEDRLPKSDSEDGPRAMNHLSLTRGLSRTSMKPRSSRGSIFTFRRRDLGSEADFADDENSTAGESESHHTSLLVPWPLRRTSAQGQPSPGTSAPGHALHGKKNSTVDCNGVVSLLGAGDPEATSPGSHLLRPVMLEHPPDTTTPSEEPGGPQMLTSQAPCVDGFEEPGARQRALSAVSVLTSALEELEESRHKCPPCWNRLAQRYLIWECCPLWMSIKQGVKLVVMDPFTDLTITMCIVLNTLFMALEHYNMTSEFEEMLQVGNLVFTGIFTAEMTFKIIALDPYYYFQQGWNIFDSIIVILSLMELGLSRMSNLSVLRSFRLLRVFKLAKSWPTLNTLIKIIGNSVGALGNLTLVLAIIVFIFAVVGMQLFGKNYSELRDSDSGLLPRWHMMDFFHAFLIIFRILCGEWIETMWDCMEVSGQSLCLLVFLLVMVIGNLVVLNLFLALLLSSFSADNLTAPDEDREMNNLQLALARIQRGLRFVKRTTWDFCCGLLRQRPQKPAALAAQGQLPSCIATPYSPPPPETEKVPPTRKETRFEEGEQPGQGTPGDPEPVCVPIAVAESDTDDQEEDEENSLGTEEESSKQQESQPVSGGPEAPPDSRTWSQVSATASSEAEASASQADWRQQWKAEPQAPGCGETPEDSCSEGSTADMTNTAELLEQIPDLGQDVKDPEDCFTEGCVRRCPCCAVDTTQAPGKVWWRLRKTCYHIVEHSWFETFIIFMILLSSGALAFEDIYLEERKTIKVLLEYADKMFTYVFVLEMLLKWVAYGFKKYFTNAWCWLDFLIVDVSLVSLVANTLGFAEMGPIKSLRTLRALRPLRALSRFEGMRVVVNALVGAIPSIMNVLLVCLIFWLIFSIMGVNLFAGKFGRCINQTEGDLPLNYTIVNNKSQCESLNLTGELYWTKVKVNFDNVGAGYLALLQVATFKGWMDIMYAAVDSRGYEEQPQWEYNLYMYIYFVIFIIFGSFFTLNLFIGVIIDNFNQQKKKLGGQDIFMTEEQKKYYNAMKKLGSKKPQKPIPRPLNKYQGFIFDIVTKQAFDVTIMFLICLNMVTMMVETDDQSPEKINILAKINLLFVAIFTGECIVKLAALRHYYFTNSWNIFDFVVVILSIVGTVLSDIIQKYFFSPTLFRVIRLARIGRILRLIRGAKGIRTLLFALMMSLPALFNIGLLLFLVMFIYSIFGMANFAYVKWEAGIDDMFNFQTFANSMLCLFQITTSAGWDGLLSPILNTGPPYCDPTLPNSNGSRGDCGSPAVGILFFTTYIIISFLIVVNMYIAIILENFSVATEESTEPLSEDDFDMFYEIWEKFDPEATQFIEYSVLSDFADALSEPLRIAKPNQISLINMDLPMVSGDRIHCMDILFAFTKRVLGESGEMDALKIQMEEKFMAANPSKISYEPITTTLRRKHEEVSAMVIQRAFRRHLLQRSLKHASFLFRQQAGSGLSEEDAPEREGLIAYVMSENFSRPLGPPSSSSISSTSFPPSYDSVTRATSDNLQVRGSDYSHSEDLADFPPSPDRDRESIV

Row | Compound | inhibition at 1 µM [%]
1 | FC(F)(F)Oc1ccc(-c2ccc3nnc(C(F)(F)OCc4ccc5nccnc5c4)n3c2)cc1 [BHN-291, 6-[(difluoro{6-[4-(trifluoromethoxy)phenyl][1,2,4]triazolo[4,3-a]pyridin-3-yl}methoxy)methyl]quinoxaline] | 47
2 | COc1cc(C(F)(F)F)ccc1-c1ccc2nnc(C(F)(F)F)n2c1 [BHN-105, 6-[2-methoxy-4-(trifluoromethyl)phenyl]-3-(trifluoromethyl)[1,2,4]triazolo[4,3-a]pyridine] | 49.3
3 | FC(F)(F)Oc1ccc(-c2ccc3nnc(COCC4CC4)n3c2)cc1 [BHN-128, 3-[(cyclopropylmethoxy)methyl]-6-[4-(trifluoromethoxy)phenyl][1,2,4]triazolo[4,3-a]pyridine] | 65.6
4 | COCC(F)(F)c1nnc2ccc(-c3ccc(Oc4ccccc4)cc3)cn12 [BHN-136, 3-(1,1-difluoro-2-methoxyethyl)-6-(4-phenoxyphenyl)[1,2,4]triazolo[4,3-a]pyridine] | 45
5 | FC(F)(F)c1ncc2ccc(-c3nc4ccccc4o3)cn12 [BHN-196, 2-[3-(trifluoromethyl)imidazo[1,5-a]pyridin-6-yl]-1,3-benzoxazole] | 26.8
6 | Cc1nccn1-c1ccccc1COC(F)(F)c1nnc2ccc(-c3ccc(OC(F)(F)F)cc3)cn12 [BHN-312, 3-(difluoro{[2-(2-methyl-1H-imidazol-1-yl)benzyl]oxy}methyl)-6-[4-(trifluoromethoxy)phenyl][1,2,4]triazolo[4,3-a]pyridine] | 51.4
7 | Cn1ccc(COC(F)(F)c2nnc3ccc(-c4ccc(OC(F)(F)F)cc4)cn23)n1 [BHN-301, 3-{difluoro[(1-methyl-1H-pyrazol-3-yl)methoxy]methyl}-6-[4-(trifluoromethoxy)phenyl][1,2,4]triazolo[4,3-a]pyridine] | 29.9
8 | FC(F)(F)Oc1ccc(-c2ccc3nnc(C(F)(F)OCc4cccnn4)n3c2)cc1 [BHN-216, 3-[difluoro(pyridazin-3-ylmethoxy)methyl]-6-[4-(trifluoromethoxy)phenyl][1,2,4]triazolo[4,3-a]pyridine] | 26.1
9 | COC(F)(F)c1nnc2ccc(-c3ccc(OC(F)(F)F)cc3)cn12 [BHN-140, 3-[difluoro(methoxy)methyl]-6-[4-(trifluoromethoxy)phenyl][1,2,4]triazolo[4,3-a]pyridine] | 53.2
10 | FC(F)(F)COc1ccc(-c2ccc3cnc(C(F)(F)F)n3c2)cn1 [BHN-179, 6-[6-(2,2,2-trifluoroethoxy)pyridin-3-yl]-3-(trifluoromethyl)imidazo[1,5-a]pyridine] | 49.7
11 | FC(F)(F)Oc1ccc(-c2ccc3nnc(C(F)(F)OCc4cccc5ncccc45)n3c2)cc1 [BHN-281, 5-[(difluoro{6-[4-(trifluoromethoxy)phenyl][1,2,4]triazolo[4,3-a]pyridin-3-yl}methoxy)methyl]quinoline] | 53.9
12 | FC(F)(F)c1nnc2ccc(-c3ccc(OC4CC4)nc3)cn12 [BHN-180, 6-[6-(cyclopropyloxy)pyridin-3-yl]-3-(trifluoromethyl)[1,2,4]triazolo[4,3-a]pyridine] | 21.1
13 | CNC(=O)c1cc(-c2ccc3nnc(C(F)(F)F)n3c2)ccc1OC(F)(F)F [BHN-174, N-methyl-2-(trifluoromethoxy)-5-[3-(trifluoromethyl)[1,2,4]triazolo[4,3-a]pyridin-6-yl]benzamide] | 16
14 | COCC(F)(F)c1nnc2ccc(C#Cc3ccc(F)cc3)cn12 [BHN-310, 3-(1,1-difluoro-2-methoxyethyl)-6-[(4-fluorophenyl)ethynyl][1,2,4]triazolo[4,3-a]pyridine] | 21.7
15 | FC(F)(F)Oc1ccc(-c2ccc3nnc(COCc4ccccc4C(F)(F)F)n3c2)cc1 [BHN-239, 6-[4-(trifluoromethoxy)phenyl]-3-({[2-(trifluoromethyl)benzyl]oxy}methyl)[1,2,4]triazolo[4,3-a]pyridine] | 65.1
16 | FC(F)(F)Oc1ccc(-c2ccc3nnc(C(F)(F)OCC#Cc4ccccc4)n3c2)cc1 [BHN-295, 3-{difluoro[(3-phenylprop-2-yn-1-yl)oxy]methyl}-6-[4-(trifluoromethoxy)phenyl][1,2,4]triazolo[4,3-a]pyridine] | 87.7

Row | Compound | inhibition at 1 µM [%]
17 | COc1nnc2ccc(-c3ccc(OC(F)(F)F)cc3)cn12 [BHN-185, 3-methoxy-6-[4-(trifluoromethoxy)phenyl][1,2,4]triazolo[4,3-a]pyridine] | 29.1
18 | N#CCOc1cc(OC(F)(F)F)ccc1-c1ccc2nnc(C(F)(F)F)n2c1 [BHN-181, {5-(trifluoromethoxy)-2-[3-(trifluoromethyl)[1,2,4]triazolo[4,3-a]pyridin-6-yl]phenoxy}acetonitrile] | 18.7
19 | N#CCOCC(F)(F)c1nnc2ccc(-c3ccc(OC(F)(F)F)cc3)cn12 [BHN-156, (2,2-difluoro-2-{6-[4-(trifluoromethoxy)phenyl][1,2,4]triazolo[4,3-a]pyridin-3-yl}ethoxy)acetonitrile] | 22.3
20 | FC(F)(F)Oc1ccc(-c2ccc3nnc(COCc4ccccn4)n3c2)cc1 [BHN-244, 3-[(pyridin-2-ylmethoxy)methyl]-6-[4-(trifluoromethoxy)phenyl][1,2,4]triazolo[4,3-a]pyridine] | 17.5
21 | CC(OC(F)(F)c1nnc2ccc(-c3ccc(OC(F)(F)F)cc3)cn12)c1ccc(Cl)cc1 (stereo not drawn) [BHN-231, 3-{[1-(4-chlorophenyl)ethoxy](difluoro)methyl}-6-[4-(trifluoromethoxy)phenyl][1,2,4]triazolo[4,3-a]pyridine] | 62.9
22 | Fc1ccc(-c2cc(COC(F)(F)c3nnc4ccc(-c5ccc(OC(F)(F)F)cc5)cn34)no2)cc1 [BHN-318, 3-(difluoro{[5-(4-fluorophenyl)-1,2-oxazol-3-yl]methoxy}methyl)-6-[4-(trifluoromethoxy)phenyl][1,2,4]triazolo[4,3-a]pyridine] | 28.9
23 | FC(F)(F)Oc1ccc(-c2ccc3nnc(C(F)(F)F)n3c2)cc1C(F)(F)F [BHN-189, 6-[4-(trifluoromethoxy)-3-(trifluoromethyl)phenyl]-3-(trifluoromethyl)[1,2,4]triazolo[4,3-a]pyridine] | 56.9
24 | FC(F)(F)c1nnc2ccc(-c3nnc(C4CC4)s3)cn12 [BHN-96, 6-(5-cyclopropyl-1,3,4-thiadiazol-2-yl)-3-(trifluoromethyl)[1,2,4]triazolo[4,3-a]pyridine] | 20.3
25 | FC(F)(F)Oc1ccc(-c2ccc3nnc(C(F)(F)F)n3c2)cc1Cl [BHN-164, 6-[3-chloro-4-(trifluoromethoxy)phenyl]-3-(trifluoromethyl)[1,2,4]triazolo[4,3-a]pyridine] | 50.7
26 | CC(OC(F)(F)c1nnc2ccc(-c3ccc(OC(F)(F)F)cc3)cn12)c1cnc2ccccc2c1 (stereo not drawn) [BHN-282, 3-[1-(difluoro{6-[4-(trifluoromethoxy)phenyl][1,2,4]triazolo[4,3-a]pyridin-3-yl}methoxy)ethyl]quinoline] | 62.7
27 | FC(F)(F)c1ccc(C#Cc2ccc3nnc(Oc4ccccc4)n3c2)cc1 [BHN-304, 3-phenoxy-6-{[4-(trifluoromethyl)phenyl]ethynyl}[1,2,4]triazolo[4,3-a]pyridine] | 28.2
28 | FC(F)(F)Oc1ccc(-c2ccc3nnc(C(F)(F)F)n3c2)c2ncccc12 [BHN-161, 5-(trifluoromethoxy)-8-[3-(trifluoromethyl)[1,2,4]triazolo[4,3-a]pyridin-6-yl]quinoline] | 49.5
29 | Fc1cccc(F)c1CCOC(F)(F)c1nnc2ccc(-c3ccc(OC(F)(F)F)cc3)cn12 [BHN-322, 3-{[2-(2,6-difluorophenyl)ethoxy](difluoro)methyl}-6-[4-(trifluoromethoxy)phenyl][1,2,4]triazolo[4,3-a]pyridine] | 72.5
30 | Cc1oc(-c2ccccc2)nc1COC(F)(F)c1nnc2ccc(-c3ccc(OC(F)(F)F)cc3)cn12 [BHN-229, 3-{difluoro[(5-methyl-2-phenyl-1,3-oxazol-4-yl)methoxy]methyl}-6-[4-(trifluoromethoxy)phenyl][1,2,4]triazolo[4,3-a]pyridine] | 72.2
31 | N#CC1(c2ccc(-c3ccc4nnc(C(F)(F)F)n4c3)cc2)CCOCC1 [BHN-254, 4-{4-[3-(trifluoromethyl)[1,2,4]triazolo[4,3-a]pyridin-6-yl]phenyl}tetrahydro-2H-pyran-4-carbonitrile] | 24.6

Same assay, conditions: compound at 10 μM; HEK293 cells expressing hNav1.5; late INa generated with 10 μM Tefluthrin (or 50 nM ATX II); read-out: LateINa_10 uM (percent block of late INa)

Row | Compound | inhibition at 10 µM [%]
32 | CS(=O)(=O)Nc1ccc(-c2nnc3ccc(-c4ccc(OC(F)(F)F)cc4)cn23)cc1 [BHN-75, N-(4-{6-[4-(trifluoromethoxy)phenyl][1,2,4]triazolo[4,3-a]pyridin-3-yl}-phenyl)methanesulfonamide] | 30.1
33 | CN1CCN(Cc2cc(-c3ccc4nnc(C(F)(F)F)n4c3)ccc2OC(F)(F)F)CC1 [BHN-81, 6-{3-[(4-methylpiperazin-1-yl)methyl]-4-(trifluoromethoxy)phenyl}-3-(trifluoromethyl)[1,2,4]triazolo[4,3-a]pyridine] | 30.3
34 | Cn1ncc2cc(-c3ccc4nnc(C(F)(F)F)n4c3)ccc21 [BHN-59, 6-(1-methyl-1H-indazol-5-yl)-3-(trifluoromethyl)[1,2,4]triazolo[4,3-a]pyridine] | 39.8
35 | FC(F)(F)c1ncc2ccc(-c3ccc(Oc4ccccc4)cc3)cn12 [BHN-7, 6-(4-phenoxyphenyl)-3-(trifluoromethyl)imidazo[1,5-a]pyridine] | 55.4
36 | COc1ccc(-c2ccc3nnc(-c4cccc(C#N)c4)n3n2)cc1 [BHN-45, 3-[6-(4-methoxyphenyl)[1,2,4]triazolo[4,3-b]pyridazin-3-yl]benzonitrile] | 36.3
